Measurements as given in patent publication US6900216B2, “Dihydroimidazo[2,1-b]thiazole and dihydro-5h-thiazolo[3,2-A]pyrimidines as antidepressant agents” (Knoll GmbH, priority 2000, dated 2005).
Like-named read-outs stand apart in the source and are kept apart here.

What was measured:
[1] = target: T1, 5-HT1A receptors (Rattus norvegicus, UniProt P19327); experiment: 5-HT1A binding: inhibition of [3H]8-OH-DPAT binding to rat hippocampal membranes; settings: for inhibition at 1 µM: read-out: 5-HT1A % displacement at 10^−6 M; for Ki: [3H]8-OH-DPAT 1 nM, rat hippocampal membranes, fit to data from three experiments
T1 construct: Hippocampal tissue from the brains of male Sprague-Dawley rats; from tissue; host or cells: rat hippocampal membranes
T1 sequence (P19327 1-422): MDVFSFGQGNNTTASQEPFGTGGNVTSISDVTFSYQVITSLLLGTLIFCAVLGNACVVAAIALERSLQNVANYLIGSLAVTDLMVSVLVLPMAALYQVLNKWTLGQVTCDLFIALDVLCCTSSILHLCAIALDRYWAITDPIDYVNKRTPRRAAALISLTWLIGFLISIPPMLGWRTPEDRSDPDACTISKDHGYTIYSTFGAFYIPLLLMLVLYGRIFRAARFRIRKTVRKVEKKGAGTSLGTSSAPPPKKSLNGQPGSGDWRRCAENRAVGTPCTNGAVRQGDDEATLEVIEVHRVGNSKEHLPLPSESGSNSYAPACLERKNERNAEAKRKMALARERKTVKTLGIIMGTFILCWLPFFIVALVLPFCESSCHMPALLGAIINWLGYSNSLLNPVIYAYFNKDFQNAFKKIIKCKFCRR
Procedure: Hippocampal tissue from the brains of male Sprague-Dawley rats (Charles River; weight range 150-250 g) was homogenised in ice-cold 50 mM Tris-HCl buffer (pH 7.7 when measured at 25° C., 1:40 w/v) and centrifuged at 40,000 g at 4° C. for 10 minutes. The pellet was rehomogenised in the same buffer, incubated at 37° C. for 10 minutes and centrifuged at 40,000 g at 4° C. for 10 minutes. The final pellet was resuspended in 50 mM Tris-HCl buffer (pH 7.7) containing 4 mM CaCl2, 0.1% L-ascorbic acid and 10 μM pargyline hydrochloride (equivalent to 6.25 mg wet weight of tissue/ml) and used immediately in the binding assay.
Membranes (400 μl; equivalent to 2.5 mg wet weight of tissue/tube) were incubated with 50 μl of [^3H]8-hydroxy-2-(dipropylamino)tetralin ([^3H]8-OH-DPAT) at a single concentration of 1 nM and 50 μl of distilled water (total binding) or 50 μl of test compound (at a single concentration of 10^−6 M or at 10 concentrations ranging from 10^−11-10^−3 M) or 50 μl of 5-HT (10 μM, non-specific binding) at 25° C. for 30 minutes. The incubation was terminated by rapid filtration under vacuum through Skatron 11734 filters using a Skatron Cell Harvester. Filters were washed with ice-cold 50 mM Tris-HCl buffer, pH 7.7 (at 25° C., wash setting 9,9,0). The scored filter paper discs were punched out into vials, scintillation fluid added and radioactivity determined by liquid scintillation counting.
For each of these tests measuring the ability of compounds of Formula I to displace standard ligands from 5-HT1A receptors and 5-hydroxytryptamine (5-HT) and noradrenaline (NA) reuptake sites and muscarinic receptors in vitro, the percentage displacement of specific binding of tritiated ligand by 10^−6 M test compound was calculated in the following way.
Firstly, specific binding of tritiated ligand in the absence (A) and presence (B) of test compound was determined:
In the absence of compound: A(dpm)=Total binding (dpm)−Non-specific binding (dpm) In the presence of compound (10^−6 M): B(dpm)=Binding at 10^−6M (dpm)−Non-specific binding (dpm)
The specific binding of tritiated ligand in the presence (B) of compound was then converted to a percentage of specific binding of tritiated ligand in the absence (A) of compound: % Specific binding at 10^−6 M=B(dpm)/A(dpm)×100
The percentage displacement of specific binding of tritiated ligand by the test compound (10^−6 M) was then obtained by subtraction of the percentage specific binding in the presence of compound from the percentage specific binding in the absence of compound, which is taken as the maximum binding and so equals 100%:
% Displacement at 10^−6 M=100−% Specific binding at 10^−6 M.
In some cases, displacement curves were then produced for compounds which displaced ≧50% of specific binding of the tritiated ligand at 10^−6 M using a range of concentrations of the compound. The Ki was then calculated by simultaneous fitting using equations derived from the Feldman equations by robust non-linear regression to data from three experiments simultaneously (De Lean et al., 1978; Munson and Rodbard, 1980; Feldman, 1992). Munson P J and Rodbard D. Ligand: a versatile computerised approach for characterisation of ligand binding systems. Anal Biochem 1980; 107: 220. Feldman HA. Mathematical theory of complex ligand binding systems at equilibrium: some methods for parameter fitting. Anal Biochem 1992: 48, 317. De Lean A, Munson P J and Rodbard D. Simultaneous analysis of families of sigmoidal curves: application to bioassay, radioligand assay, and physiological dose-response curves. Am J Physiol 1978: 235 (2), E97-E102.
The results obtained in the above tests for 5-HT1A binding and 5-HT and NA uptake and muscarinic binding for the final products of Examples 1-39 hereinafter are given in Table 1 below. Kis are in nM. % Figures are for % displacement at 10^−6 M for a single determination.

melting point | Ki [1] [nM] | inhibition at 1 µM ([1]; 10^−6 M test compound, single determination, [3H]8-OH-DPAT) [%] | SMILES | inhibition at 1 µM [1] [%]
145 to 149 °C | 20.4 |  | OCC1=C(c2cccc3sccc23)N2CCN=C2S1 [Example 3, [3-(benzo[b]thiophen-4-yl)-5,6-dihydroimidazo[2,1-b]thiazol-2-yl]methanol] | 
170 to 172 °C | 2.2 |  | OCC1=C(c2cc3c(Cl)cccc3s2)N2CCN=C2S1 [Example 4, [3-(4-chlorobenzo[b]thiophen-2-yl)-5,6-dihydroimidazo[2,1-b]thiazol-2-yl]methanol] | 
257 to 259 °C (dec.) | 9.7 |  | Br.CC1=C(c2cc3ccccc3s2)N2CCN=C2S1 [Example 6, 3-(benzo[b]thiophen-2-yl)-2-methyl-5,6-dihydroimidazo[2,1-b]thiazole hydrobromide] | 
 | 14.3 |  | Br.CC1=C(c2cccc3sccc23)N2CCN=C2S1 [Example 8, 3-(benzo[b]thiophen-4-yl)-2-methyl-5,6-dihydroimidazo[2,1-b]thiazole hydrobromide] | 
 | 52 |  | Br.Oc1cccc2sc(C3=CSC4=NCCN34)cc12 [Example 12, 2-(5,6-dihydroimidazo[2,1-b]thiazol-3-yl)benzo[b]thiophen-4-ol hydrobromide] | 
 | 83 |  | CC(C)C1=C(c2ccc3sccc3c2)N2CCN=C2S1 [Example 29, 3-(benzo[b]thiophen-5-yl)-2-(1-methylethyl)-5,6-dihydroimidazo[2,1-b]-thiazole] | 

Further lines, the compound ahead of its results:

SMILES | melting point | Ki [1] [nM] | inhibition at 1 µM ([1]; 10^−6 M test compound, single determination, [3H]8-OH-DPAT) [%] | inhibition at 1 µM [1] [%]
Br.Clc1cccc2sc(C3=CSC4=NCCN34)cc12 [Example 1, 3-(4-chlorobenzo[b]thiophen-2-yl)-5,6-dihydroimidazo[2,1-b]thiazole hydrobromide] | 273 to 274 °C |  |  | 60
C1=C(c2cccc3sccc23)N2CCN=C2S1.Cl [Example 2, 3-(benzo[b]thiophen-4-yl)-5,6-dihydroimidazo[2,1-b]thiazole hydrochloride] | 246 to 249 °C | 86 |  | 
Cl.Fc1cccc2sc(C3=CSC4=NCCN34)cc12 [Example 5, 3-(4-fluorobenzo[b]thiophen-2-yl)-5,6-dihydroimidazo[2,1-b]thiazole hydrochloride] | 220 to 224 °C |  |  | 55
Br.CC1=C(c2cc3c(F)cccc3s2)N2CCN=C2S1 [Example 7, 3-(4-fluorobenzo[b]thiophen-2-yl)-2-methyl-5,6-dihydroimidazo[2,1-b]thiazole hydrobromide] | 224 to 226 °C | 11.7 |  | 
CC1=C(c2cccc3sccc23)N2CCN=C2S1.Cl [Example 9, 3-(benzo[b]thiophen-4-yl)-2-methyl-5,6-dihydroimidazo[2,1-b]thiazole hydrochloride] |  | 15 |  | 
Br.CC1=C(c2cc3c(Cl)cccc3s2)N2CCN=C2S1 [Example 10, 3-(4-chlorobenzo[b]thiophen-2-yl)-2-methyl-5,6-dihydroimidazo[2,1-b]thiazole hydrobromide] | 246 to 248 °C | 5.9 |  | 
Br.CCC1=C(c2cc3cc(Cl)ccc3s2)N2CCN=C2S1 [Example 11, 3-(5-chlorobenzo[b]thiophen-2-yl)-2-ethyl-5,6-dihydroimidazo[2,1-b]thiazole hydrobromide] | 282 to 284 °C |  |  | 80
Br.CCC1=C(c2cccc3sccc23)N2CCN=C2S1 [Example 13, 3-(benzo[b]thiophen-4-yl)-2-ethyl-5,6-dihydroimidazo[2,1-b]thiazole hydrobromide] | 144 to 146 °C | 15.5 |  | 
Br.CC1(c2cc3cc(F)ccc3s2)CSC2=NCCN21 (centres unmarked) [Example 27, 3-(5-fluorobenzo[b]thiophen-2-yl)-3-methyl-5,6-dihydroimidazo[2,1-b]thiazole hydrobromide] |  |  |  | 88
CSC1=C(c2ccc3sccc3c2)N2CCN=C2S1 [Example 30, 3-(benzo[b]thiophen-5-yl)-2-(methylthio)-5,6-dihydroimidazo[2,1-b]thiazole] |  |  | 66 | 
